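How tested: cells in 96-well plates exposed to compound for 48 hours at five concentrations. Here, GI50 denotes the concentration required for 50% inhibition of growth.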 Calls of active or inactive are those of the source. Rule as the data show it: active = GI50 up to about 1.1 µM and inactive = higher.
Assays:
Assay in all cases: NCI tumour cell line growth inhibition, 48 h
SF-295 = tested on: SF-295
786-0 = tested on: 786-0
HL-60 = tested on: HL-60
NCI-H226 = tested on: NCI-H226
LOX IMVI = tested on: LOX IMVI
Hs-578T = tested on: Hs-578T
CAKI-1 = tested on: CAKI-1
UACC-257 = tested on: UACC-257
HOP-62 = tested on: HOP-62
ACHN = tested on: ACHN
SK-OV-3 = tested on: SK-OV-3
HCT-15 = tested on: HCT-15
SF-268 = tested on: SF-268
K562 = tested on: K562
SNB-75 = tested on: SNB-75
MOLT-4 = tested on: MOLT-4
SK-MEL-28 = tested on: SK-MEL-28
MDA-N = tested on: MDA-N
SK-MEL-2 = tested on: SK-MEL-2
SF-539 = tested on: SF-539

`O=C(N/N=C/c1ccc([N+](=O)[O-])cc1)Nc1ccc(Br)cc1` was tested, and the GI50 (SF-295) was > 100 µM (inactive), the GI50 (786-0) was 84.7 µM (inactive) and the GI50 (HL-60) was 40.5 µM (inactive). For the same molecule, the GI50 (NCI-H226) was > 100 µM (inactive), the GI50 (LOX IMVI) was 51.1 µM (inactive) and the GI50 (Hs-578T) was > 100 µM (inactive). The GI50 (CAKI-1) was 83.6 µM (inactive), the GI50 (UACC-257) was > 100 µM (inactive) and the GI50 (HOP-62) was 32.9 µM (inactive). For the same molecule, the GI50 (ACHN) was 60.7 µM (inactive), the GI50 (SK-OV-3) was 68.2 µM (inactive) and the GI50 (HCT-15) was greater than 100 µM. For the same molecule, the GI50 (SF-268) was 52.2 µM (inactive), the GI50 (K562) was 54 µM (inactive) and the GI50 (SNB-75) was > 100 µM (inactive). The GI50 (MOLT-4) was 36.4 µM (inactive), the GI50 (SK-MEL-28) was > 100 µM (inactive) and the GI50 (MDA-N) was 44.6 µM (inactive). The GI50 (SK-MEL-2) was > 100 µM (inactive) and the GI50 (SF-539) was > 100 µM (inactive).
For `COC(=O)C1Cc2cccc(C)c2C1` (stereo not given), the GI50 (SF-295) was > 100 µM (inactive), the GI50 (786-0) was > 100 µM (inactive) and the GI50 (HL-60) was 65.5 µM (inactive). The GI50 (NCI-H226) was > 100 µM (inactive), the GI50 (LOX IMVI) was 42 µM (inactive) and the GI50 (Hs-578T) was > 100 µM (inactive). For the same molecule, the GI50 (CAKI-1) was > 100 µM (inactive), the GI50 (UACC-257) was > 100 µM (inactive) and the GI50 (HOP-62) was > 100 µM (inactive). For the same molecule, the GI50 (ACHN) was > 100 µM (inactive), the GI50 (SK-OV-3) was > 100 µM (inactive) and the GI50 (HCT-15) was 37.3 µM. The GI50 (SF-268) was > 100 µM (inactive), the GI50 (K562) was 48.4 µM (inactive) and the GI50 (SNB-75) was > 100 µM (inactive). The GI50 (MOLT-4) was 46.6 µM (inactive), the GI50 (SK-MEL-28) was > 100 µM (inactive) and the GI50 (MDA-N) was > 100 µM (inactive). For the same molecule, the GI50 (SK-MEL-2) was > 100 µM (inactive) and the GI50 (SF-539) was > 100 µM (inactive).
For `CCCC(=O)OCC1OC(n2cc(F)c(=O)[nH]c2=O)CC1O` (stereo not given), the GI50 (SF-295) was 0.0731 µM (active), the GI50 (786-0) was 0.337 µM (active) and the GI50 (HL-60) was 0.614 µM (active). For the same molecule, the GI50 (NCI-H226) was > 7.57 µM (inactive), the GI50 (LOX IMVI) was 0.0303 µM (active) and the GI50 (Hs-578T) was 3.85 µM (inactive). The GI50 (CAKI-1) was 0.0402 µM (active), the GI50 (UACC-257) was 4.1 µM (inactive) and the GI50 (HOP-62) was 0.0553 µM (active). For the same molecule, the GI50 (ACHN) was 0.0395 µM (active), the GI50 (SK-OV-3) was > 4.14 µM (inactive) and the GI50 (HCT-15) was greater than 7.53 µM. For the same molecule, the GI50 (SF-268) was 0.0306 µM (active), the GI50 (K562) was 1.87 µM (inactive) and the GI50 (SNB-75) was 0.0871 µM (active). The GI50 (MOLT-4) was > 8.55 µM (inactive), the GI50 (SK-MEL-28) was > 6.78 µM (inactive) and the GI50 (MDA-N) was 1.45 µM (inactive). The GI50 (SK-MEL-2) was > 9.64 µM (inactive) and the GI50 (SF-539) was 0.00432 µM (active).
With `CC(C)NC(=O)OCCN=c1c2ccccc2ccc2ccccc12` the GI50 (SF-295) was 38.2 µM (inactive), the GI50 (786-0) was 59.4 µM (inactive) and the GI50 (HL-60) was 15.8 µM (inactive). For the same molecule, the GI50 (NCI-H226) was 30.4 µM (inactive), the GI50 (LOX IMVI) was 44.9 µM (inactive) and the GI50 (Hs-578T) was 35.2 µM (inactive). For the same molecule, the GI50 (CAKI-1) was 35.9 µM (inactive), the GI50 (UACC-257) was 42.6 µM (inactive) and the GI50 (HOP-62) was 41.9 µM (inactive). For the same molecule, the GI50 (ACHN) was 43.1 µM (inactive), the GI50 (SK-OV-3) was 47.6 µM (inactive) and the GI50 (HCT-15) was 38.7 µM. The GI50 (SF-268) was 63.7 µM (inactive), the GI50 (K562) was 25 µM (inactive) and the GI50 (SNB-75) was 62.5 µM (inactive). The GI50 (MOLT-4) was 24.4 µM (inactive), the GI50 (SK-MEL-28) was 32.4 µM (inactive) and the GI50 (MDA-N) was 40.6 µM (inactive). The GI50 (SK-MEL-2) was 23.7 µM (inactive) and the GI50 (SF-539) was 53.2 µM (inactive).
In the case of `O=[N+]([O-])C(=C(Sc1ccccc1)Sc1ccccc1)C(Cl)=C(Cl)Cl`, the GI50 (SF-295) is reported as 11.9 µM (inactive), the GI50 (786-0) is reported as 0.0703 µM (active) and the GI50 (HL-60) is reported as 0.141 µM (active). For the same molecule, the GI50 (NCI-H226) was 0.614 µM (active), the GI50 (LOX IMVI) was 0.177 µM (active) and the GI50 (Hs-578T) was 3.32 µM (inactive). The GI50 (CAKI-1) was 0.476 µM (active), the GI50 (UACC-257) was 0.323 µM (active) and the GI50 (HOP-62) was 1.91 µM (inactive). The GI50 (ACHN) was 0.248 µM (active), the GI50 (SK-OV-3) was 10.1 µM (inactive) and the GI50 (HCT-15) was 0.319 µM. The GI50 (SF-268) was 2 µM (inactive), the GI50 (K562) was 0.0923 µM (active) and the GI50 (SNB-75) was 4.54 µM (inactive). For the same molecule, the GI50 (MOLT-4) was 0.051 µM (active), the GI50 (SK-MEL-28) was 0.427 µM (active) and the GI50 (MDA-N) was 0.23 µM (active). For the same molecule, the GI50 (SK-MEL-2) was 2.26 µM (inactive) and the GI50 (SF-539) was 2.13 µM (inactive).
For `O=P(O)(O)c1ccc(-c2ccc(I)cc2)cc1`, the GI50 (SF-295) was > 10 µM (inactive), the GI50 (786-0) was > 100 µM (inactive) and the GI50 (HL-60) was > 100 µM (inactive). The GI50 (NCI-H226) was > 100 µM (inactive), the GI50 (LOX IMVI) was > 100 µM (inactive) and the GI50 (Hs-578T) was > 100 µM (inactive). The GI50 (CAKI-1) was > 100 µM (inactive), the GI50 (UACC-257) was > 100 µM (inactive) and the GI50 (HOP-62) was > 100 µM (inactive). The GI50 (ACHN) was > 100 µM (inactive), the GI50 (SK-OV-3) was > 100 µM (inactive) and the GI50 (HCT-15) was greater than 100 µM. For the same molecule, the GI50 (SF-268) was > 100 µM (inactive), the GI50 (K562) was > 100 µM (inactive) and the GI50 (SNB-75) was 65 µM (inactive). For the same molecule, the GI50 (MOLT-4) was > 100 µM (inactive), the GI50 (SK-MEL-28) was > 100 µM (inactive) and the GI50 (MDA-N) was > 100 µM (inactive). The GI50 (SK-MEL-2) was > 100 µM (inactive) and the GI50 (SF-539) was > 100 µM (inactive).
`C/C=C/[C@H]1O[C@@](O)([C@@H](C)[C@H](O)[C@H](C)[C@H]2OC(=O)/C(OC)=C/C(C)=C/[C@@H](C)[C@@H](O)[C@@H](CC)[C@@H](O)[C@H](C)C/C(C)=C/C=C/[C@@H]2OC)C[C@H](OC2CC(O)C(O)C(C)O2)[C@@H]1C` (stereo not given in full) was tested, and the GI50 (SF-295) was < 0.0075 µM (active), the GI50 (786-0) was < 0.0075 µM (active) and the GI50 (HL-60) was < 0.0075 µM (active). For the same molecule, the GI50 (NCI-H226) was < 0.0075 µM (active), the GI50 (LOX IMVI) was < 0.0075 µM (active) and the GI50 (Hs-578T) was < 0.0075 µM (active). For the same molecule, the GI50 (CAKI-1) was < 0.0075 µM (active), the GI50 (UACC-257) was < 0.0075 µM (active) and the GI50 (HOP-62) was < 0.0075 µM (active). For the same molecule, the GI50 (ACHN) was < 0.0075 µM (active), the GI50 (SK-OV-3) was 8.04 µM (inactive) and the GI50 (HCT-15) was less than 0.0075 µM. The GI50 (SF-268) was < 0.0075 µM (active), the GI50 (K562) was < 0.0075 µM (active) and the GI50 (SNB-75) was 8.59 µM (inactive). The GI50 (MOLT-4) was < 0.0075 µM (active), the GI50 (SK-MEL-28) was 0.114 µM (active) and the GI50 (MDA-N) was < 0.0075 µM (active). For the same molecule, the GI50 (SK-MEL-2) was < 0.0075 µM (active) and the GI50 (SF-539) was < 0.0075 µM (active).
In the case of `C=CCN(C(C)=O)c1cc(OCc2ccccc2)c2c(c1)c(C)cn2S(=O)(=O)c1ccccc1`, the GI50 (SF-295) is reported as 3.94 µM (inactive), the GI50 (786-0) is reported as 6.21 µM (inactive) and the GI50 (HL-60) is reported as 4.89 µM (inactive). For the same molecule, the GI50 (NCI-H226) was 7.29 µM (inactive), the GI50 (LOX IMVI) was 5.07 µM (inactive) and the GI50 (Hs-578T) was 7.4 µM (inactive). The GI50 (CAKI-1) was 6.59 µM (inactive), the GI50 (UACC-257) was 5.11 µM (inactive) and the GI50 (HOP-62) was 11.5 µM (inactive). For the same molecule, the GI50 (ACHN) was 4.36 µM (inactive), the GI50 (SK-OV-3) was 16.1 µM (inactive) and the GI50 (HCT-15) was 4.79 µM. The GI50 (SF-268) was 5.37 µM (inactive), the GI50 (K562) was 2.83 µM (inactive) and the GI50 (SNB-75) was 6.18 µM (inactive). The GI50 (MOLT-4) was 2.67 µM (inactive), the GI50 (SK-MEL-28) was 21.2 µM (inactive) and the GI50 (MDA-N) was 4.66 µM (inactive). For the same molecule, the GI50 (SK-MEL-2) was 3.11 µM (inactive) and the GI50 (SF-539) was 11.5 µM (inactive).
In the case of `O=C1C(Br)=CC2(C=C1Br)CCNC1=C2C(=O)c2cccnc2C1=O`, the GI50 (SF-295) is reported as 8.75 µM (inactive), the GI50 (786-0) is reported as 15.3 µM (inactive) and the GI50 (HL-60) is reported as 3.49 µM (inactive). For the same molecule, the GI50 (NCI-H226) was 16.6 µM (inactive), the GI50 (LOX IMVI) was 5.48 µM (inactive) and the GI50 (Hs-578T) was 5.42 µM (inactive). The GI50 (CAKI-1) was 17.4 µM (inactive), the GI50 (UACC-257) was 8.36 µM (inactive) and the GI50 (HOP-62) was 8.93 µM (inactive). The GI50 (ACHN) was 17 µM (inactive), the GI50 (SK-OV-3) was 16.9 µM (inactive) and the GI50 (HCT-15) was 5.14 µM. For the same molecule, the GI50 (SF-268) was 13.3 µM (inactive), the GI50 (K562) was 2.44 µM (inactive) and the GI50 (SNB-75) was 10.7 µM (inactive). For the same molecule, the GI50 (MOLT-4) was 5.69 µM (inactive), the GI50 (SK-MEL-28) was 14.2 µM (inactive) and the GI50 (MDA-N) was 1.77 µM (inactive). The GI50 (SK-MEL-2) was 2.69 µM (inactive) and the GI50 (SF-539) was 8.99 µM (inactive).

Reference: ChEMBL document CHEMBL1201862, “PubChem BioAssay data set” (2004)
